Experimental data reported in ChEMBL document CHEMBL2146430, “Rational evolution of a novel type of potent and selective proviral integration site in Moloney murine leukemia virus kinase 1 (PIM1) inhibitor from a screening-hit compound” (J Med Chem, 2012).
Active and inactive are the calls of the source. No cut-off for these calls is given here.

Experiments:
[1] = molecular target: T1, Serine/threonine-protein kinase pim-1 (Homo sapiens, UniProt P11309); conditions: 300 nM
Target sequence in this assay (P11309 whole entry, looked up): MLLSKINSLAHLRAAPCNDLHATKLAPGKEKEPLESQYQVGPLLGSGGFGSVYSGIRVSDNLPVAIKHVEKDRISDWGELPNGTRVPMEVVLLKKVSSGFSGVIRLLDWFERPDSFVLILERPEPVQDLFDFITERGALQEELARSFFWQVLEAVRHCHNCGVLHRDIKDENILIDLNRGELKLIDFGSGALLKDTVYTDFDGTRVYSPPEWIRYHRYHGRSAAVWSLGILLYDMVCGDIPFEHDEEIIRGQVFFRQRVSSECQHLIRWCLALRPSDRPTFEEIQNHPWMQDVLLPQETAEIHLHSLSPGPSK
Description: Inhibition of PIM1 at 300 nM by electrophoretic mobility shift assay

[2] = Metabolic stability in mouse liver microsomes assessed as compound remaining at 1 uM after 1 hr; assay type: ADME, Microsome; conditions: read-out: Stability
CYP1A2 = CYP1A2 (Homo sapiens, UniProt P05177); experiment: Inhibition of CYP1A2 at 10 uM; assay type: ADME
CYP2C9 = CYP2C9 (Homo sapiens, UniProt P11712); experiment: Inhibition of CYP2C9 at 10 uM; assay type: ADME
[3] = molecular target: T2, Serine/threonine-protein kinase pim-2 (Homo sapiens, UniProt Q9P1W9); experiment: Inhibition of PIM2 at 300 nM by electrophoretic mobility shift assay
Target sequence in this assay (Q9P1W9 whole entry, looked up): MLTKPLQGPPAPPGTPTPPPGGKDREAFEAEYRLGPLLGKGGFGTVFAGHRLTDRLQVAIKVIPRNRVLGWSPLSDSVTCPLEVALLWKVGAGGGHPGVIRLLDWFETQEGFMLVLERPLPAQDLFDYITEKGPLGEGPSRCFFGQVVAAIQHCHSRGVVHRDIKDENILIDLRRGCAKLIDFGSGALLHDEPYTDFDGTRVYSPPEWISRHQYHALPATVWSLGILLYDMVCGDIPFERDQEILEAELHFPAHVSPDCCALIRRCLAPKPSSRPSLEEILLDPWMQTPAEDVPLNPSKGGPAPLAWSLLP

WI-38 = experiment: Growth inhibition of human WI38 cells after 48 hrs; assay type: cell-based; conditions: wi-38, 48 h
hERG (KCNH2) [4] = molecular target: T3, hERG (KCNH2) (Homo sapiens, UniProt Q12809); experiment: Inhibition of human ERG at 10 uM by patch clamp assay
T3 sequence (Q12809 whole entry): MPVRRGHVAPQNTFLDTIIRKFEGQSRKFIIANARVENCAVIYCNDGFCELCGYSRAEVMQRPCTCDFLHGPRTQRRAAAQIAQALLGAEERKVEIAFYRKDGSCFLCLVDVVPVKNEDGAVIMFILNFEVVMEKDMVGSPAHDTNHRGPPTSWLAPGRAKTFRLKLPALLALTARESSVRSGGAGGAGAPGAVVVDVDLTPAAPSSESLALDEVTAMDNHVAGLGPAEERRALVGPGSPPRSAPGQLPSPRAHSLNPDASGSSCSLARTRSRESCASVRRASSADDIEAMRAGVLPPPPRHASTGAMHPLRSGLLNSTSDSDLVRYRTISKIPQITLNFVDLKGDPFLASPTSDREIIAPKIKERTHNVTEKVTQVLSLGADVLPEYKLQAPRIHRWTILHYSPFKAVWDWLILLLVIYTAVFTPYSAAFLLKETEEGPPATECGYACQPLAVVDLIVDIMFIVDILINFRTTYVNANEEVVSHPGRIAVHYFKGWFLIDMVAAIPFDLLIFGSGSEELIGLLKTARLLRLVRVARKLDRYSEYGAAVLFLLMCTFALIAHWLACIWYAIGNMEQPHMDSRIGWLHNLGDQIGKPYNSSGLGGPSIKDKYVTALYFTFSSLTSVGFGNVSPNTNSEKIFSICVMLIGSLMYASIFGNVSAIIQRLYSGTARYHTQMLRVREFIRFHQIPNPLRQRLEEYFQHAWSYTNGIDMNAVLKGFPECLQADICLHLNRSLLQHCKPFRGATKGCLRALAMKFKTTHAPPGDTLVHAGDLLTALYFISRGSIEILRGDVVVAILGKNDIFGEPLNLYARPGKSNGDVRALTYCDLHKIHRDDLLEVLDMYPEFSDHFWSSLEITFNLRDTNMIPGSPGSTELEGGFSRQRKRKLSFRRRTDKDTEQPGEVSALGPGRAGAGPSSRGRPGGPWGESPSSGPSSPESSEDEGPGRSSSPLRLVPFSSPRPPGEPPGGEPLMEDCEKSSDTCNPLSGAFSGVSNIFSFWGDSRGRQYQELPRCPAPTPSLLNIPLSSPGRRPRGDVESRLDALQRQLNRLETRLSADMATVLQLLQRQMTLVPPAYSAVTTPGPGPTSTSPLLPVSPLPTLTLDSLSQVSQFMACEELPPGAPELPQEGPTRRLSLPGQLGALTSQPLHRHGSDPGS

[5] = molecular target: T2, Serine/threonine-protein kinase pim-2; experiment: Inhibition of PIM2 by electrophoretic mobility shift assay
hERG (KCNH2) [6] = molecular target: T3, hERG (KCNH2); experiment: Inhibition of human ERG at 1 uM by patch clamp assay
[7] = Metabolic stability in human liver microsomes assessed as compound remaining at 1 uM after 1 hr; assay type: ADME, Microsome; conditions: read-out: Stability
MV4-11 [8] = experiment: Cell cycle arrest in human MV4-11 cells assessed as accumulation at G1 phase after 48 hrs by flow cytometry; assay type: functional, cell-based
[9] = molecular target: T1, Serine/threonine-protein kinase pim-1; experiment: Inhibition of PIM1 using 5-FAM-RSRHSSYPAGT-CONH2 as substrate after 2 hrs by electrophoretic mobility shift assay
Target sequence in this assay (P11309 whole entry): as the sequence (P11309 whole entry, looked up) above

[10] = molecular target: T1, Serine/threonine-protein kinase pim-1; conditions: MV4-11, 0.01 to 10 uM
Target sequence in this assay (P11309 whole entry, looked up): as above
Description: Inhibition of PIM1-mediated BAD phosphorylation at ser136 in human MV4-11 cells at 0.01 to 10 uM after 1 hr by Western blotting

[11] = molecular target: T4, Serine/threonine-protein kinase pim-3 (Homo sapiens, UniProt Q86V86); experiment: Inhibition of PIM3 by electrophoretic mobility shift assay
MV4-11 [12] = experiment: Induction of apoptosis in human MV4-11 cells after 48 hrs by annexin V/propidium iodide staining based flow cytometric analysis; assay type: functional, cell-based
CYP2C19 = CYP2C19 (Homo sapiens, UniProt P33261); experiment: Inhibition of CYP2C19 at 10 uM; assay type: ADME
[13] = molecular target: Receptor-type tyrosine-protein kinase FLT3 (Homo sapiens, UniProt P36888); experiment: Inhibition of FLT3 by electrophoretic mobility shift assay
[14] = Metabolic stability in mouse hepatocytes assessed as compound remaining at 1 uM after 2 hrs; assay type: ADME, cell-based, Hepatocyte; conditions: read-out: Stability
CYP3A4 = CYP3A4 (Homo sapiens, UniProt P08684); experiment: Inhibition of CYP3A4 at 10 uM; assay type: ADME
[15] = molecular target: Receptor-type tyrosine-protein kinase FLT3 (Homo sapiens) (UniProt P36888); experiment: Inhibition of FLT3 at 300 nM by electrophoretic mobility shift assay
Receptor-type tyrosine-protein kinase FLT3 (Homo sapiens), sequence (P36888 whole entry): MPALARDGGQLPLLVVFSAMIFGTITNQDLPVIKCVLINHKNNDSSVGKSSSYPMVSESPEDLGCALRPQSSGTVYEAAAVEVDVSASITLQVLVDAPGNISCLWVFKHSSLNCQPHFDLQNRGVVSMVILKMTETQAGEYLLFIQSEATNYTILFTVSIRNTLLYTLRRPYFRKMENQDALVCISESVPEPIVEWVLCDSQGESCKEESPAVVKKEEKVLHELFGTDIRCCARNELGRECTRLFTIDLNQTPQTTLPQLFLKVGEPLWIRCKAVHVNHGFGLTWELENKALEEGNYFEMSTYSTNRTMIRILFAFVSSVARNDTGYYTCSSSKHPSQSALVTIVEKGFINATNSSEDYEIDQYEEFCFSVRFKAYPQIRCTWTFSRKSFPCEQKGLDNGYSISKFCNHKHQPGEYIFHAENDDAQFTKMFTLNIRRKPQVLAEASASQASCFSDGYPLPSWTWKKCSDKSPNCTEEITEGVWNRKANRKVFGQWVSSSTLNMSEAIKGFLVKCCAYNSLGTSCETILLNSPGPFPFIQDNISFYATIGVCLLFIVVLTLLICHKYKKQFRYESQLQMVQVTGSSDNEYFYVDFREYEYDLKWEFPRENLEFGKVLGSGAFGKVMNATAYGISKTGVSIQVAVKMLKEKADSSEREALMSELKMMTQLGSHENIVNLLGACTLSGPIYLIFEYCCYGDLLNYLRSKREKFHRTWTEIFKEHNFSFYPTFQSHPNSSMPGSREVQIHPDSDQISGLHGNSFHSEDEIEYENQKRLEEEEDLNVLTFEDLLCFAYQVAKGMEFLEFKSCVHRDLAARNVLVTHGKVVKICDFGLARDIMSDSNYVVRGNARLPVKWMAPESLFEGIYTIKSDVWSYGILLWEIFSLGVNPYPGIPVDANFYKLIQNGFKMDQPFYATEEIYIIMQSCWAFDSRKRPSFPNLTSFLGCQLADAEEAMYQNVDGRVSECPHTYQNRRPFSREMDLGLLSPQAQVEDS

CYP2D6 = CYP2D6 (Homo sapiens, UniProt P10635); experiment: Inhibition of CYP2D6 at 10 uM; assay type: ADME
[16] = molecular target: T1, Serine/threonine-protein kinase pim-1; experiment: Inhibition of PIM1 by electrophoretic mobility shift assay
Target sequence in this assay (P11309 whole entry): as the sequence (P11309 whole entry, looked up) above

[17] = molecular target: T4, Serine/threonine-protein kinase pim-3; experiment: Inhibition of PIM3 at 300 nM by electrophoretic mobility shift assay
MV4-11 [18] = experiment: Growth inhibition of human MV4-11 cells after 48 hrs; assay type: functional; conditions: MV4-11, 48 h
[19] = molecular target: T1, Serine/threonine-protein kinase pim-1; experiment: Inhibition of PIM1 at 22500 nM by electrophoretic mobility shift assay
Target sequence in this assay (P11309 whole entry, looked up): as the sequence (P11309 whole entry, looked up) above

[20] = molecular target: T4, Serine/threonine-protein kinase pim-3; experiment: Inhibition of PIM3 at 22500 nM by electrophoretic mobility shift assay
[21] = molecular target: Mitogen-activated protein kinase kinase kinase 9 (Homo sapiens) (UniProt P80192); experiment: Inhibition of MLK1 at 22500 nM by ELISA
[22] = molecular target: Aurora kinase A (Homo sapiens) (UniProt O14965); experiment: Inhibition of Aurora A at 22500 nM by electrophoretic mobility shift assay
[23] = molecular target: Vascular endothelial growth factor receptor 2 (Homo sapiens) (UniProt P35968); experiment: Inhibition of KDR at 22500 nM by electrophoretic mobility shift assay
[24] = molecular target: Platelet-derived growth factor receptor alpha (Homo sapiens) (UniProt P16234); experiment: Inhibition of PDGFRalpha at 22500 nM by electrophoretic mobility shift assay
Platelet-derived growth factor receptor alpha (Homo sapiens), sequence (P16234 whole entry): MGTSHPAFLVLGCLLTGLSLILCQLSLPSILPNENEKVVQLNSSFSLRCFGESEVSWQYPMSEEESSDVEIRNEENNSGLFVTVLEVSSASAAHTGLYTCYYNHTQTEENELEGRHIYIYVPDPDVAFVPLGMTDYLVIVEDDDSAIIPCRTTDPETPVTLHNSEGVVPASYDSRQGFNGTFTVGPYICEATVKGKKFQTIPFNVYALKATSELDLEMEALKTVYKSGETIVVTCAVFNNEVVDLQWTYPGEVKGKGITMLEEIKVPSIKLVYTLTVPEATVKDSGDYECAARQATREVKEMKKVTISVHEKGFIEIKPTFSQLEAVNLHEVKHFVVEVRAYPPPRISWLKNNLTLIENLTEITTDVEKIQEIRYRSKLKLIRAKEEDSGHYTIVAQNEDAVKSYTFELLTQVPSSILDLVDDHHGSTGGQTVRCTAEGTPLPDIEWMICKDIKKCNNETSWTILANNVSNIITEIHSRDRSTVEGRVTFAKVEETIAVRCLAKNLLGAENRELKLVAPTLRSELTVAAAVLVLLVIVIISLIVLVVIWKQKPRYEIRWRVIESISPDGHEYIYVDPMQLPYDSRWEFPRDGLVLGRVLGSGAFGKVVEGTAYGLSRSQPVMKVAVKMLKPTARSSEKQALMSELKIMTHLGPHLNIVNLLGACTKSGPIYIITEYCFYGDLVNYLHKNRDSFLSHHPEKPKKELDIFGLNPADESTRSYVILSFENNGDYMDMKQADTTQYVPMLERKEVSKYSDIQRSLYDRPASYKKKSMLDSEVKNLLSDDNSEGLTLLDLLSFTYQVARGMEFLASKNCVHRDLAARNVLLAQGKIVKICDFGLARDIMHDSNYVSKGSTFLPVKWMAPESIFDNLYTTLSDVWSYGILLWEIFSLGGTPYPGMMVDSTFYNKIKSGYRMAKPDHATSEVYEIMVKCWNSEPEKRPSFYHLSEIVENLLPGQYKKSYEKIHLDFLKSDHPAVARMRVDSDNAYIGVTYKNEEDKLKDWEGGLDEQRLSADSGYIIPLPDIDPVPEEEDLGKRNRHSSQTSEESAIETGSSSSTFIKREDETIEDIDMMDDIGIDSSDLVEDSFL

[25] = molecular target: T2, Serine/threonine-protein kinase pim-2; experiment: Inhibition of PIM2 at 22500 nM by electrophoretic mobility shift assay
Target sequence in this assay (Q9P1W9 whole entry, looked up): as the sequence (Q9P1W9 whole entry, looked up) above

[26] = molecular target: Receptor-type tyrosine-protein kinase FLT3 (Homo sapiens) (UniProt P36888); experiment: Inhibition of FLT3 at 22500 nM by electrophoretic mobility shift assay
[27] = molecular target: Epidermal growth factor receptor (Homo sapiens) (UniProt P00533); experiment: Inhibition of EGFR at 22500 nM by electrophoretic mobility shift assay
[28] = molecular target: Tyrosine-protein kinase SYK (Homo sapiens) (UniProt P43405); experiment: Inhibition of SYK at 22500 nM by electrophoretic mobility shift assay
[29] = molecular target: Serine/threonine-protein kinase 4 (Homo sapiens) (UniProt Q13043); experiment: Inhibition of MST1 at 22500 nM by electrophoretic mobility shift assay
[30] = molecular target: Glycogen synthase kinase-3 beta (Homo sapiens) (UniProt P49841); experiment: Inhibition of GSK3beta at 22500 nM by electrophoretic mobility shift assay
[31] = molecular target: T2, Serine/threonine-protein kinase pim-2; experiment: Inhibition of PIM2 at 600 nM by electrophoretic mobility shift assay
Target sequence in this assay (Q9P1W9 whole entry, looked up): as above

[32] = molecular target: Tyrosine-protein kinase SYK (Homo sapiens) (UniProt P43405); experiment: Inhibition of SYK at 600 nM by electrophoretic mobility shift assay
[33] = molecular target: Receptor-type tyrosine-protein kinase FLT3 (Homo sapiens) (UniProt P36888); experiment: Inhibition of FLT3 at 600 nM by electrophoretic mobility shift assay
[34] = molecular target: T4, Serine/threonine-protein kinase pim-3; experiment: Inhibition of PIM3 at 600 nM by electrophoretic mobility shift assay
[35] = molecular target: T1, Serine/threonine-protein kinase pim-1; experiment: Inhibition of PIM1 at 600 nM by electrophoretic mobility shift assay
Target sequence in this assay (P11309 whole entry, looked up): as the sequence (P11309 whole entry, looked up) above

[36] = molecular target: Platelet-derived growth factor receptor alpha (Homo sapiens) (UniProt P16234); experiment: Inhibition of PDGFRalpha at 600 nM by electrophoretic mobility shift assay
[37] = molecular target: Death-associated protein kinase 1 (Homo sapiens) (UniProt P53355); experiment: Inhibition of DAPK1 at 200 nM by electrophoretic mobility shift assay
[38] = molecular target: Protein kinase C alpha type (Homo sapiens) (UniProt P17252); experiment: Inhibition of PKCalpha at 200 nM by electrophoretic mobility shift assay
[39] = molecular target: Serine/threonine-protein kinase D2 (Homo sapiens) (UniProt Q9BZL6); experiment: Inhibition of PKD2 at 200 nM by electrophoretic mobility shift assay
[40] = molecular target: T4, Serine/threonine-protein kinase pim-3; experiment: Inhibition of PIM3 at 200 nM by electrophoretic mobility shift assay
[41] = molecular target: Receptor-type tyrosine-protein kinase FLT3 (Homo sapiens) (UniProt P36888); experiment: Inhibition of FLT3 at 200 nM by electrophoretic mobility shift assay
[42] = molecular target: T2, Serine/threonine-protein kinase pim-2; experiment: Inhibition of PIM2 at 200 nM by electrophoretic mobility shift assay
Target sequence in this assay (Q9P1W9 whole entry, looked up): as the sequence (Q9P1W9 whole entry, looked up) above

[43] = molecular target: T1, Serine/threonine-protein kinase pim-1; experiment: Inhibition of PIM1 at 200 nM by electrophoretic mobility shift assay
Target sequence in this assay (P11309 whole entry, looked up): as the sequence (P11309 whole entry, looked up) above

[44] = molecular target: Glycogen synthase kinase-3 beta (Homo sapiens) (UniProt P49841); experiment: Inhibition of GSK3beta at 200 nM by electrophoretic mobility shift assay
[45] = molecular target: Rho-associated protein kinase 1 (Homo sapiens) (UniProt Q13464); experiment: Inhibition of ROCK1 at 200 nM by electrophoretic mobility shift assay
[46] = molecular target: Platelet-derived growth factor receptor alpha (Homo sapiens) (UniProt P16234); experiment: Inhibition of PDGFRalpha at 200 nM by electrophoretic mobility shift assay
[47] = molecular target: T4, Serine/threonine-protein kinase pim-3; conditions: 250 nM
Description: Inhibition of PIM3 at 250 nM by electrophoretic mobility shift assay

[48] = molecular target: T2, Serine/threonine-protein kinase pim-2; conditions: 250 nM
Target sequence in this assay (Q9P1W9 whole entry, looked up): as the sequence (Q9P1W9 whole entry, looked up) above
Description: Inhibition of PIM2 at 250 nM by electrophoretic mobility shift assay

COc1ccc2c(c1CN1CCNCC1)O/C(=C\c1n[nH]c3ccccc13)C2=O
inhibition [1]: 99% | remaining at 1 h, 1 µM [2]: 92% | inhibition at 10 µM (CYP1A2): 33% | inhibition at 10 µM (CYP2C9): < 1% | inhibition [3]: 19% | Activity (WI-38): Non-toxic | inhibition at 10 µM (hERG (KCNH2) [4]): 60% | IC50 [5]: 1.16 µM | inhibition at 1 µM (hERG (KCNH2) [6]): 13% | remaining at 1 h, 1 µM [7]: > 99% | Activity (MV4-11 [8]): Dose-dependent effect | IC50 [9]: 0.003 µM | inhibition [10]: inactive | IC50 [11]: 0.013 µM | Activity (MV4-11 [12]): Dose-dependent effect | inhibition at 10 µM (CYP2C19): 54% | IC50 [13]: 0.047 µM | remaining at 2 h, 1 µM [14]: 89% | inhibition at 10 µM (CYP3A4): 10% | inhibition [15]: Active | inhibition at 10 µM (CYP2D6): 11% | IC50 [16]: 0.006 µM | inhibition [17]: 98% | GI50 (MV4-11 [18]): 0.043 µM

O=C1/C(=C/c2c[nH]c3ccccc23)Oc2c1ccc(O)c2CN1CCCCCC1
remaining at 1 h, 1 µM [2]: 44% | inhibition [19]: 77% | inhibition [20]: 88% | inhibition [21]: Active | inhibition [22]: Active | remaining at 1 h, 1 µM [7]: 36% | inhibition [23]: Active | inhibition [24]: Active | inhibition [25]: 46% | inhibition [26]: Active | IC50 [9]: 0.41 µM | inhibition [27]: Active | inhibition [28]: Active | inhibition [29]: Active | inhibition [30]: Active

CCCOc1ccc2c(c1CN1CCNCC1)O/C(=C\c1c[nH]c3ccccc13)C2=O
IC50 [9]: 0.012 µM

O=C1/C(=C/c2c[nH]c3ccccc23)Oc2c1ccc(O)c2CN1CCNCC1
remaining at 1 h, 1 µM [2]: 71% | inhibition [31]: 30% | inhibition [32]: Active | remaining at 1 h, 1 µM [7]: 90% | IC50 [9]: 0.017 µM | inhibition [33]: Active | inhibition [34]: 97% | inhibition [35]: 98% | inhibition [36]: Active | GI50 (MV4-11 [18]): 0.27 µM

COc1ccc2c(c1CN1CCNCC1)O/C(=C\c1c[nH]c3ncccc13)C2=O
inhibition [37]: Active | inhibition [38]: Active | IC50 [9]: 0.002 µM | inhibition [39]: Active | inhibition [40]: 99% | inhibition [41]: Active | inhibition [42]: 39% | inhibition [43]: > 99% | inhibition [44]: Active | inhibition [45]: Active | inhibition [46]: Active

CCOc1ccc2c(c1CN1CCNCC1)O/C(=C\c1c[nH]c3ccccc13)C2=O
IC50 [9]: 0.006 µM

O=C1/C(=C/c2c[nH]c3ccccc23)Oc2c(CN3CCNCC3)cccc21
IC50 [9]: 0.02 µM

COc1ccc2c(c1CN1CCNCC1)O/C(=C\c1c[nH]c3ccccc13)C2=O
remaining at 1 h, 1 µM [2]: 86% | inhibition [47]: 98% | remaining at 1 h, 1 µM [7]: 82% | inhibition [48]: 30% | GI50 (MV4-11 [18]): 0.095 µM

O=C1/C(=C/c2c[nH]c3ccccc23)Oc2c1ccc(OCc1ccccc1)c2CN1CCNCC1
IC50 [9]: 0.043 µM

COc1ccc2c(c1CN1CCNCC1)O/C(=C\c1c[nH]c3ccncc13)C2=O
IC50 [9]: 0.053 µM

O=C1/C(=C/c2c[nH]c3ccccc23)Oc2c1ccc(O)c2CN1CCCNCC1
IC50 [9]: 0.102 µM

CN1CCN(Cc2c(O)ccc3c2O/C(=C\c2c[nH]c4ccccc24)C3=O)CC1
IC50 [9]: 0.388 µM

COc1ccc2c(c1CN1CCNCC1)O/C(=C\c1c[nH]c3cccnc13)C2=O
IC50 [9]: 0.447 µM
